The source of these data is ChEMBL document CHEMBL1146710, “Discovery of a novel series of DHODH inhibitors by a docking procedure and QSAR refinement” (Bioorg Med Chem Lett, 2004).

pIC50: −log10 of the molar value.

Dihydroorotate dehydrogenase (quinone), mitochondrial, sequence (Q02127 whole entry): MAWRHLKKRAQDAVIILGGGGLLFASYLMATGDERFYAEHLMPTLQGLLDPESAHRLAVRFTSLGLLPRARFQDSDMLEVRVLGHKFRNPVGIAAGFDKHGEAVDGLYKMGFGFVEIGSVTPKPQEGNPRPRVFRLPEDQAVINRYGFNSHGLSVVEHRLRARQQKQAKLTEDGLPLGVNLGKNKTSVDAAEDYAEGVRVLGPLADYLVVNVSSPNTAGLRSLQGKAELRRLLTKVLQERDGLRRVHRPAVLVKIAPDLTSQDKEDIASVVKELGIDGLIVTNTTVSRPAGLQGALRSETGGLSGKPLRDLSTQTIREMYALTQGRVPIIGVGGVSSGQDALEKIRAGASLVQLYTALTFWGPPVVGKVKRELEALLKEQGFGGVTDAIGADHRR

This test addresses Dihydroorotate dehydrogenase (quinone), mitochondrial (Homo sapiens, UniProt Q02127).
Description: In vitro inhibitory activity against human dihydroorotate dehydrogenase (DHODH)
In turn, `CN(C)c1ccc(-c2ccc(NC(=O)C3=C(C(=O)O)CCC3)cc2Cl)cc1` had a pIC50 of 7.30.

`O=C(O)C1=C(C(=O)Nc2ccc(-c3ccc(OC(F)(F)F)cc3)cc2F)CCC1` had a negative logarithm of the IC50 (pIC50) of 5.24. Molecule `N#Cc1cc(-c2cccc(OC(F)(F)F)c2)ccc1NC(=O)C1=C(C(=O)O)CCC1` had a pIC50 of 6.43.

As for `COc1cccc(-c2ccc(NC(=O)C3=C(C(=O)O)CCC3)c(OC)c2)c1`, the pIC50 is 6.77. In the case of `O=C(O)C1=C(C(=O)Nc2ccc(-c3cccc(OC(F)(F)F)c3)cc2F)CCC1`, the pIC50 is 6.55. This pIC50 is 0.22 log units lower than that of the molecule before. The molecule `O=C(O)C1=C(C(=O)Nc2c(F)cc(-c3ccccc3F)cc2F)CCC1` gave a pIC50 of 7.35.

The molecule `CN(C)c1ccc(-c2cc(F)c(NC(=O)C3=C(C(=O)O)CCC3)c(F)c2)cc1` showed a pIC50 of 6.21. In the case of `O=C(O)C1=C(C(=O)Nc2c(F)c(F)c(-c3cccc(OC(F)(F)F)c3)c(F)c2F)CCC1`, the pIC50 was 8.15. In turn, `O=C(O)C1=C(C(=O)Nc2ccc(-c3ccc(Br)cc3)cc2Cl)CCC1` gave a pIC50 of 5.54.

On to `O=C(O)C1=C(C(=O)Nc2ccc(-c3cccc(OC(F)(F)F)c3)cc2[N+](=O)[O-])CCC1`, for which the pIC50 is 6.41.

For the molecule `O=C(O)C1=C(C(=O)Nc2ccc(-c3cccc(OC(F)(F)F)c3)cc2Cl)CCC1`, the pIC50 is 6.54. Next, `Cc1cc(-c2cccc(OC(F)(F)F)c2)ccc1NC(=O)C1=C(C(=O)O)CCC1`: 6.82; `COc1cc(-c2ccccc2Cl)ccc1NC(=O)C1=C(C(=O)O)CCC1`: 6.65; `O=C(O)C1=C(C(=O)Nc2ccc(-c3cccc(OC(F)(F)F)c3)cc2C(F)(F)F)CCC1`: 6.08. `O=C(O)C1=C(C(=O)Nc2c(F)cc(-c3cccc(OC(F)(F)F)c3)cc2F)CCC1` showed a pIC50 of 7.48. `CC(C)(C)c1ccc(-c2ccc(NC(=O)C3=C(C(=O)O)CCC3)cc2Cl)cc1`: the negative-log IC50 (pIC50) is 7.10. Against the preceding molecule, the pIC50 is 0.38 log units lower. For `COc1ccccc1-c1ccc(NC(=O)C2=C(C(=O)O)CCC2)c(Cl)c1`, the pIC50 is 6.51. With `O=C(O)C1=C(C(=O)Nc2c(F)cc(-c3ccccc3Cl)cc2F)CCC1`, the pIC50 is 7.74.

For the molecule `O=C(O)C1=C(C(=O)Nc2ccc(-c3ccc(Br)cc3)cc2F)CCC1`, the pIC50 is 6.13. With `O=C(O)C1=C(C(=O)Nc2ccc(-c3cccc(OC(F)(F)F)c3)c(Cl)c2)CCC1`, the pIC50 is 7.70. Compared with the last molecule, the pIC50 is 1.57 log units higher. On to `COc1ccc(-c2cc(F)c(NC(=O)C3=C(C(=O)O)CCC3)c(F)c2)c(OC)c1`, for which the pIC50 is 7.05. Consider `O=C(O)C1=C(C(=O)Nc2ccc(-c3cccc(O)c3)cc2F)CCC1`, for which the pIC50 was 6.21.

In turn, `COc1ccccc1-c1c(F)c(F)c(NC(=O)C2=C(C(=O)O)CCC2)c(F)c1F` showed a pIC50 of 8.10. Against the preceding molecule, the pIC50 is 1.89 log units higher. In turn, `COc1ccc(-c2ccc(NC(=O)C3=C(C(=O)O)CCC3)c(F)c2)cc1` had a pIC50 of 5.77. This pIC50 lies 2.33 log units lower than the previous one. `O=C(O)C1=C(C(=O)Nc2ccc(-c3ccccc3)cc2)CCC1` showed a pIC50 of 6.39. In the case of `O=C(O)C1=C(C(=O)Nc2ccc(-c3ccc(Br)cc3)c(Cl)c2)CCC1`, the pIC50 is 7.15.

With `O=C(O)C1=C(C(=O)Nc2ccc(-c3cccc4ccccc34)cc2C(F)(F)F)CCC1`, the pIC50 is 6.74. In the case of `CCOc1cccc(-c2cc(F)c(NC(=O)C3=C(C(=O)O)CCC3)c(F)c2)c1`, the pIC50 is 7.77. As for `COc1ccc(-c2ccc(NC(=O)C3=C(C(=O)O)CCC3)c(Cl)c2)cc1`, the figure is 5.08.

What is called pIC50 is the IC50 on a negative log10 scale, so that one unit is a factor of ten.
